The subject of data set [1] is normal adult human subjects (vasoconstriction). The data set can be described thus: topical anti-inflammatory activity, modified Stoughton/McKenzie vasoconstriction assay in humans. The class given is in vivo. The source says:
The compounds of Formula (I) where R is alkyl of 1-6 carbon atoms, haloalkyl of 1-6 carbons or phenyl or benzyl optionally substituted on the phenyl ring with alkyl of 1-4 carbons, alkoxy of 1-4 carbons or halo and R^1, R^2, X^1, X^2, X^3 and X^4 are as defined in the broadest aspect of the invention are useful for the relief of inflamed conditions in mammals, and more specifically are useful for relieving inflammatory manifestations of corticosteroid responsive dermatoses. Initial approximation of anti-inflammatory activity is done by following the procedure of McKenzie, S. W. and Stoughton, R. B., "Methods for Comparing Percutaneous Absorption of Steroids" Arch Dermat, 86, (1962) or modifications thereof.
The topical anti-inflammatory activity potential for each compound was assayed using a modified Stoughton/-McKenzie vaso-constriction assay in humans, V. A. Place, et al, Arch. Dermat. 101, 531-537 (1970). Eight normal adult human subjects were treated on each forearm by topical administration with alcohol solutions containing 1×10^-5 and 1×10^-6 g/ml of each of the compounds to provide 64 total test sites for each compound in a series (32 for each concentration). […] Twenty-four hours after application, the presence of vasoconstriction is noted by visual examination, and expressed as the number of sites responding (vasoconstriction). […]

A further data set deals with thymus gland. The following applies: rat, in vivo, sc. The procedure:
The compounds to be tested for thymolytic activity including a hydrocortisone (HC) standard, were prepared in three or more concentrations by suspension in a sodium carboxymethyl-cellulose vehicle. Animals received the test materials by subcutaneous injection of 0.5 ml of the suspension on each of three successive days. Four hours following the final injection, the rats were sacrificed and the thymus gland of each animal removed and weighed. These weights are then employed to establish dose-response graphs by methods known in the art.

A short description of data set [2]: therapeutic advantage (topical potency versus systemic activity). Conditions: in words. The class given is in vivo. Here is the method:
The topical anti-inflammatory activity potential for each compound was assayed using a modified Stoughton/-McKenzie vaso-constriction assay in humans, V. A. Place, et al, Arch. […]. 101, 531-537 (1970). Eight normal adult human subjects were treated on each forearm by topical administration with alcohol solutions containing 1×10^-5 and 1×10^-6 g/ml of each of the compounds to provide 64 total test sites for each compound in a series (32 for each concentration). Areas of the subjects' forearms were outlined by a rubber stamp grid coated with silicone grease, and 10 microliters are applied per 7×7 mm square site. After the preparations have dried, the areas on each forearm are covered with Saran® wrap and the margins sealed with tape. The occlusive wrap is removed after 18 hours. Twenty-four hours after application, the presence of vasoconstriction is noted by visual examination, and expressed as the number of sites responding (vasoconstriction). Fluocinolone acetonide is used as a standard. Also, the intensity of the vasoconstriction is scorred on a 0, 1, 2 scale, 2 being the most intense reaction. Both scores are used in constructing dose-response graphs according to methods set forth in an article by V. A. Place et al, infra. […]

The nature of data set [3]: LD50, single subcutaneous injection, mortality observed for 21 days. Format: in vivo, mouse. Conditions: mouse, in vivo, sc; Swiss-Webster mice, subcutaneous, 21 days observation. The procedure:
(§1) Six Swiss-Webster mice (Simonsen) each weighing about 25 grams, were injected subcutaneously with a solution of methyl 6α,9α-difluoro-11β-hydroxy-16α-methyl-3-oxo-17α-n-propionyloxyandrosta-1,4-diene 17β-thiocarboxylate in […] having a concentration of 10 ml/kg. The dosage was 25 mg/kg or about 0.625 mg/mouse. The mice were observed daily for mortality for 21 days.

A further data set concerns Swiss-Webster mice. Described as above. The class given is in vivo, mouse. Conditions: six mice, 25 mg/kg subcutaneous, 21 days. Here is the method:
as §1

The results in this text go back to patent publication US4261986A, “4-Halo etianic acids and derivatives thereof” (Syntex (U.S.A.) Inc., priority 1979, dated 1981).

Consider `CCC(=O)O[C@]1(C(=O)OC)[C@H](C)C[C@H]2[C@@H]3C[C@H](F)C4=C(F)C(=O)C=C[C@]4(C)[C@@]3(F)[C@@H](O)C[C@@]21C` [methyl 4,6α,9α-trifluoro-11β-hydroxy-16α-methyl-3-oxo-17α-propionyloxyandrosta-1,4-diene 17β-carboxylate], for which, in data set [1] (alcohol solutions 1×10^-5 and 1×10^-6 g/ml, fluocinolone acetonide standard), the “topical potency relative to FA” value was 1-2 time FA. Besides, the topical potency result in data set [1] (in words) is listed as “excellent topical potency”. Further, in the data set with thymus gland, the “systemic activity relative to HC” value amounted to 10 times HC and the thymolytic activity result is recorded as “slight activity in the dose range of hydrocortisone”. In addition, the therapeutic advantage result in data set [2] is “distinct therapeutic advantage”.
The compound `CCC(=O)O[C@]1(C(=O)SC)[C@H](C)C[C@H]2[C@@H]3C[C@H](F)C4=CC(=O)C=C[C@]4(C)[C@@]3(F)[C@@H](O)C[C@@]21C` [methyl 6α,9α-difluoro-11β-hydroxy-16α-methyl-3-oxo-17α-n-propionyloxyandrosta-1,4-diene 17β-thiocarboxylate] had an LD50 at 504 h in data set [3] above 25 mg/kg. Moreover, the mortality entry with Swiss-Webster mice is on record as “One mouse died”.

A word on the LD50: it is the dose expected to kill half of the subjects tested. Read a low LD50 as a more toxic substance.
